Test results taken from ChEMBL document CHEMBL5620391 (Eur J Med Chem, 2023).
Blank lines part the entries; values can stand above or below the compound they belong to.

How the values were obtained:
HL-60 [1] = assay: Antitumor activity against human HL-60 cells xenografted in nude BALB/c mouse assessed as tumor growth inhibition at 5 mg/kg, ip administered for 21 days consecutively relative to control; assay type: functional; conditions: HL-60, 504 h, time 21 day, read-out: TGI
[2] = Toxicity in nude BALB/c mouse xenografted with human HL-60 cells assessed as toxic sign in heart at 5 mg/kg, ip administered for 21 days consecutively by H and E staining based analysis; assay type: organism-based; conditions: in vivo, 504 h, time 21 day
[3] = Toxicity in nude BALB/c mouse xenografted with human HL-60 cells assessed as toxic sign in kidney at 5 mg/kg, ip administered for 21 days consecutively by H and E staining based analysis; assay type: organism-based; conditions: in vivo, 504 h, time 21 day
[4] = Toxicity in nude BALB/c mouse xenografted with human HL-60 cells assessed as toxic sign in spleen at 5 mg/kg, ip administered for 21 days consecutively by H and E staining based analysis; assay type: organism-based; conditions: in vivo, 504 h, time 21 day
[5] = Antiproliferative activity against human MOLM16 cells incubated for 48 hrs by CCK8 assay; conditions: MOLM16, 48 h
[6] = Toxicity in nude BALB/c mouse xenografted with human HL-60 cells assessed as toxic sign in liver at 5 mg/kg, ip administered for 21 days consecutively by H and E staining based analysis; assay type: organism-based; conditions: in vivo, 504 h, time 21 day
[7] = Toxicity in nude BALB/c mouse xenografted with human HL-60 cells assessed as body weight change at 5 mg/kg, ip administered for 21 days consecutively; assay type: organism-based; conditions: in vivo, 504 h, time 21 day
KG-1 = assay: Antiproliferative activity against human KG-1 cells incubated for 48 hrs by CCK8 assay; assay type: functional, cell-based; conditions: KG-1, 48 h
MV4-11 = assay: Antiproliferative activity against human MV4-11 cells incubated for 48 hrs by CCK8 assay; assay type: functional, cell-based; conditions: MV4-11, 48 h
EOL1 = assay: Antiproliferative activity against human EOL1 cells incubated for 48 hrs by CCK8 assay; assay type: functional, cell-based; conditions: EOL1, 48 h
HL-60 [8] = assay: Antiproliferative activity against human HL-60 cells incubated for 48 hrs by CCK8 assay; assay type: functional, cell-based; conditions: HL-60, 48 h
[9] = Toxicity in nude BALB/c mouse xenografted with human HL-60 cells assessed as toxic sign in lung at 5 mg/kg, ip administered for 21 days consecutively by H and E staining based analysis; assay type: organism-based; conditions: in vivo, 504 h, time 21 day
HL-60 [10] = assay: Induction of apoptosis in human HL-60 cells assessed as viable cells at 1 uM incubated for 48 hrs by Annexin V-FITC/PI staining based flow cytometry (reference value: 97.4 %); assay type: functional; conditions: read-out: Activity
[11] = Tmax in fasted Sprague-Dawley rat at 10 mg/kg, po measured for 24 hrs by LC-MS/MS analysis; assay type: ADME, organism-based; conditions: in vivo
[12] = MRT (infinity) in fasted Sprague-Dawley rat at 2 mg/kg, iv measured for 24 hrs by LC-MS/MS analysis; assay type: ADME, organism-based; conditions: in vivo
[13] = Apparent volume of distribution in fasted Sprague-Dawley rat at 2 mg/kg, iv measured for 24 hrs by LC-MS/MS analysis; assay type: ADME, organism-based; conditions: in vivo, read-out: Vz
[14] = Toxicity in nude BALB/c mouse xenografted with human HL-60 cells assessed as toxic sign in liver at 5 to 10 mg/kg, ip administered for 21 days consecutively by H and E staining based analysis; assay type: organism-based; conditions: in vivo, 504 h, dose 5-10 mg/kg, time 21 day
[15] = target: Phosphatidylinositol 4,5-bisphosphate 3-kinase catalytic subunit beta isoform (Homo sapiens, UniProt P42338); assay: Inhibition of PI3Kbeta (unknown origin) using PIP2 as substrate incubated for 60 mins in presence of ATP by ADP-Glo assay
Sequence of Phosphatidylinositol 4,5-bisphosphate 3-kinase catalytic subunit beta isoform (P42338 whole entry, canonical isoform): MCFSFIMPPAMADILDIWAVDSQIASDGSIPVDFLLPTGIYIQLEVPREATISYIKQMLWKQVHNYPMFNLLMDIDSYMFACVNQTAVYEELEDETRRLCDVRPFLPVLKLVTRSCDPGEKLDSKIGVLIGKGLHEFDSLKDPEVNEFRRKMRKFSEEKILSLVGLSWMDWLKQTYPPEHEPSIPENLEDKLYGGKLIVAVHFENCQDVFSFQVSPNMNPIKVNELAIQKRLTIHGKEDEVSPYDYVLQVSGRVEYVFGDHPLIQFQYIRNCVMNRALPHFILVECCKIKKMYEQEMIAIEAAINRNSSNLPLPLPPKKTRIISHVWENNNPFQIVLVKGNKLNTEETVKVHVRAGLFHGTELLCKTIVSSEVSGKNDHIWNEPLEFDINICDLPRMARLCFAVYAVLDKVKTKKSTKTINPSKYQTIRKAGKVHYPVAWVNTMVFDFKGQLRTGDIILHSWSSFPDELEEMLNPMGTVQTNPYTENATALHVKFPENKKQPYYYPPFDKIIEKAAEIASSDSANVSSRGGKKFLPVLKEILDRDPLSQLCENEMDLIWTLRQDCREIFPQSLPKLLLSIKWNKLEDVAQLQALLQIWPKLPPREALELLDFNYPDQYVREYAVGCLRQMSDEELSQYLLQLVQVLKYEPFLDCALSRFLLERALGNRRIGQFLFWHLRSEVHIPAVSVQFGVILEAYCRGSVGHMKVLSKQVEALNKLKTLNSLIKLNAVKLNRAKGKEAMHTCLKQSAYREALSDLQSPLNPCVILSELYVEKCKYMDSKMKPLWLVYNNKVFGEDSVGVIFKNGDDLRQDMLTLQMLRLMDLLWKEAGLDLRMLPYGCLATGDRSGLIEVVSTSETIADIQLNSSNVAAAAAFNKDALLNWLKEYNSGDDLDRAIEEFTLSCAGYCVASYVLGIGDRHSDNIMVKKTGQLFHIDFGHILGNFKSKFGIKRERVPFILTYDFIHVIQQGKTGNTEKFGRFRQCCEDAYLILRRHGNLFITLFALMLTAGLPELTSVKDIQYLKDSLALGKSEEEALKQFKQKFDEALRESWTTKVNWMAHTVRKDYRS

[16] = AUC (0 to t) in fasted Sprague-Dawley rat at 10 mg/kg, po measured for 24 hrs by LC-MS/MS analysis; assay type: ADME, organism-based; conditions: in vivo
[17] = Toxicity in nude BALB/c mouse xenografted with human HL-60 cells assessed as toxic sign in lung at 5 to 10 mg/kg, ip administered for 21 days consecutively by H and E staining based analysis; assay type: organism-based; conditions: in vivo, 504 h, dose 5-10 mg/kg, time 21 day
[18] = Toxicity in nude BALB/c mouse xenografted with human HL-60 cells assessed as body weight change at 5 to 10 mg/kg, ip administered for 21 days consecutively; assay type: organism-based; conditions: in vivo, 504 h, dose 5-10 mg/kg, time 21 day
[19] = AUC (0 to infinity) in fasted Sprague-Dawley rat at 10 mg/kg, po measured for 24 hrs by LC-MS/MS analysis; assay type: ADME, organism-based; conditions: in vivo
HL-60 [20] = assay: Induction of apoptosis in human HL-60 cells assessed as viable cells at 0.25 uM incubated for 48 hrs by Annexin V-FITC/PI staining based flow cytometry (reference value: 97.4 %); assay type: functional; conditions: read-out: Activity
[21] = Cmax in fasted Sprague-Dawley rat at 10 mg/kg, po measured for 24 hrs by LC-MS/MS analysis; assay type: ADME, organism-based; conditions: in vivo
[22] = Half life in fasted Sprague-Dawley rat at 10 mg/kg, po measured for 24 hrs by LC-MS/MS analysis; assay type: ADME, organism-based; conditions: in vivo
[23] = Toxicity in nude BALB/c mouse xenografted with human HL-60 cells assessed as toxic sign in spleen at 5 to 10 mg/kg, ip administered for 21 days consecutively by H and E staining based analysis; assay type: organism-based; conditions: in vivo, 504 h, dose 5-10 mg/kg, time 21 day
[24] = Toxicity in nude BALB/c mouse xenografted with human HL-60 cells assessed as toxic sign in heart at 5 to 10 mg/kg, ip administered for 21 days consecutively by H and E staining based analysis; assay type: organism-based; conditions: in vivo, 504 h, dose 5-10 mg/kg, time 21 day
[25] = target: Phosphatidylinositol 4,5-bisphosphate 3-kinase catalytic subunit gamma isoform (Homo sapiens, UniProt P48736); assay: Inhibition of PI3Kgamma (unknown origin) using PIP2 as substrate incubated for 60 mins in presence of ATP by ADP-Glo assay
Sequence of Phosphatidylinositol 4,5-bisphosphate 3-kinase catalytic subunit gamma isoform (P48736 whole entry, canonical isoform): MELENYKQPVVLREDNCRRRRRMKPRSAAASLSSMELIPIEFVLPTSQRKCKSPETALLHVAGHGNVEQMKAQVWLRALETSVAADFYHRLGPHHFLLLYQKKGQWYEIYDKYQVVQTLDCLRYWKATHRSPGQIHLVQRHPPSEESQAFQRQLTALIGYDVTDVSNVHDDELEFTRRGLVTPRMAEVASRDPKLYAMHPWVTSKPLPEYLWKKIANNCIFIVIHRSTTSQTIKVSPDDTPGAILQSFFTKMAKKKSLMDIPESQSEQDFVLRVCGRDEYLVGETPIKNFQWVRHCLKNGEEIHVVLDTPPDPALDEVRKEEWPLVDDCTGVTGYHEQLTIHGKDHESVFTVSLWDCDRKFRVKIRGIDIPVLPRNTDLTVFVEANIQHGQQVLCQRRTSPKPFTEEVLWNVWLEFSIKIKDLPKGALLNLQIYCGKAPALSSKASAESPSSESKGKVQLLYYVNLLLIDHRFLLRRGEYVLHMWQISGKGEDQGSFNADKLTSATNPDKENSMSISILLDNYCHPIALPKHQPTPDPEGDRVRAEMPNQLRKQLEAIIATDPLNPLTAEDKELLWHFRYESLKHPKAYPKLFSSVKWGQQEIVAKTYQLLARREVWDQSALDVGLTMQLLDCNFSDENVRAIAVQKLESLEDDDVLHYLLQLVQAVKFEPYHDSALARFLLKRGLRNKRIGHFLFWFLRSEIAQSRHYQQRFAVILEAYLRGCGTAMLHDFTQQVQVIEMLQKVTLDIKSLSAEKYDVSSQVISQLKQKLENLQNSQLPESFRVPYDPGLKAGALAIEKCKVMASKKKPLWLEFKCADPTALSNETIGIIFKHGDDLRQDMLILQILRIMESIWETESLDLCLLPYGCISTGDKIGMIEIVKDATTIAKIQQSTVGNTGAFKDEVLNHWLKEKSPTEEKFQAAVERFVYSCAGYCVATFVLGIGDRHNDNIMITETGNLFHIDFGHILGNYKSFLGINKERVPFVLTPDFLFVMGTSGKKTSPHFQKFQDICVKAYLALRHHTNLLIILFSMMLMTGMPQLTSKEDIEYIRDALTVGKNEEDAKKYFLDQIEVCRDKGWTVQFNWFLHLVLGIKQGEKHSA

[26] = Clearance in fasted Sprague-Dawley rat at 2 mg/kg, iv measured for 24 hrs by LC-MS/MS analysis; assay type: ADME, organism-based; conditions: in vivo
[27] = AUC (0 to infinity) in fasted Sprague-Dawley rat at 2 mg/kg, iv measured for 24 hrs by LC-MS/MS analysis; assay type: ADME, organism-based; conditions: in vivo
[28] = Oral bioavailability in fasted Sprague-Dawley rat at 10 mg/kg measured for 24 hrs by LC-MS/MS analysis; assay type: ADME, organism-based; conditions: in vivo
[29] = AUC (0 to t) in fasted Sprague-Dawley rat at 2 mg/kg, iv measured for 24 hrs by LC-MS/MS analysis; assay type: ADME, organism-based; conditions: in vivo
HL-60 [30] = assay: Induction of apoptosis in human HL-60 cells assessed as viable cells at 0.5 uM incubated for 48 hrs by Annexin V-FITC/PI staining based flow cytometry (reference value: 97.4 %); assay type: functional; conditions: read-out: Activity
[31] = target: Phosphatidylinositol 4,5-bisphosphate 3-kinase catalytic subunit alpha isoform (Homo sapiens, UniProt P42336); assay: Inhibition of PI3Kalpha (unknown origin) using PIP2 as substrate incubated for 60 mins in presence of ATP by ADP-Glo assay
Sequence of Phosphatidylinositol 4,5-bisphosphate 3-kinase catalytic subunit alpha isoform (P42336 whole entry, canonical isoform): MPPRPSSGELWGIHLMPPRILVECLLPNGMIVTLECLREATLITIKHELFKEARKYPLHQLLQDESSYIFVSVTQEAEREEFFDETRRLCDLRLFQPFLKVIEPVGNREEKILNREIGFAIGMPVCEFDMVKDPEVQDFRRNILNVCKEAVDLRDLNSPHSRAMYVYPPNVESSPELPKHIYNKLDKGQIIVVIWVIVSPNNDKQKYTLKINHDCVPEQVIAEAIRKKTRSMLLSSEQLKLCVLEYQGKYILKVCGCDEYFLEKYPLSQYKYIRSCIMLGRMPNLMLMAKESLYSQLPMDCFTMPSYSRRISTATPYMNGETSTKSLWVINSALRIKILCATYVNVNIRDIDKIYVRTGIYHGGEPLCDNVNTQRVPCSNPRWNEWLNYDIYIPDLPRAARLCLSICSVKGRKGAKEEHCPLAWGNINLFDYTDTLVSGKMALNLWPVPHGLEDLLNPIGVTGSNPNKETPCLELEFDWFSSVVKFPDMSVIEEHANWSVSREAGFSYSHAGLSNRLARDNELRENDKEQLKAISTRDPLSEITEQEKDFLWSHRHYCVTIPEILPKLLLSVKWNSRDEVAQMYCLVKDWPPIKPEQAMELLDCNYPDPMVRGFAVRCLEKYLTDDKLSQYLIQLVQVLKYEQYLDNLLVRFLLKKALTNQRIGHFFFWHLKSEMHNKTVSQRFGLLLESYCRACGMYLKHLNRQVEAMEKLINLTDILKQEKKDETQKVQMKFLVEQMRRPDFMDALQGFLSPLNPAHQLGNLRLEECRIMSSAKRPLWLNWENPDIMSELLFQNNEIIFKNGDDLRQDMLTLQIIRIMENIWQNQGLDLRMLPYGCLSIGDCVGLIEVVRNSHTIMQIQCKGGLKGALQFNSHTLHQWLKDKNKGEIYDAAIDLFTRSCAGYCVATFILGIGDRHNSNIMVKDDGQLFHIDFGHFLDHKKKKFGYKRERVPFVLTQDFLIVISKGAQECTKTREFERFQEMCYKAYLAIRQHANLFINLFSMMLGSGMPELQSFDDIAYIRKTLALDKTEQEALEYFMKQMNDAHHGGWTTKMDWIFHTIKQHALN

[32] = Toxicity in nude BALB/c mouse xenografted with human HL-60 cells assessed as toxic sign in kidney at 5 to 10 mg/kg, ip administered for 21 days consecutively by H and E staining based analysis; assay type: organism-based; conditions: in vivo, 504 h, dose 5-10 mg/kg, time 21 day
[33] = Half life in fasted Sprague-Dawley rat at 2 mg/kg, iv measured for 24 hrs by LC-MS/MS analysis; assay type: ADME, organism-based; conditions: in vivo
[34] = target: Serine/threonine-protein kinase mTOR (Homo sapiens, UniProt P42345); assay: Inhibition of N-terminal FLAG-tagged recombinant human mTOR (1362 to end residues) using ULight-4E-BP1 (Thr37/46) peptide as substrate incubated for 30 mins in presence of ATP by LANCE ultra assay
[35] = target: T1, Phosphatidylinositol 4,5-bisphosphate 3-kinase catalytic subunit delta isoform (Homo sapiens, UniProt O00329); assay: Inhibition of PI3Kdelta (unknown origin) using PIP2 as substrate incubated for 60 mins in presence of ATP by ADP-Glo assay
T1 sequence (O00329 whole entry): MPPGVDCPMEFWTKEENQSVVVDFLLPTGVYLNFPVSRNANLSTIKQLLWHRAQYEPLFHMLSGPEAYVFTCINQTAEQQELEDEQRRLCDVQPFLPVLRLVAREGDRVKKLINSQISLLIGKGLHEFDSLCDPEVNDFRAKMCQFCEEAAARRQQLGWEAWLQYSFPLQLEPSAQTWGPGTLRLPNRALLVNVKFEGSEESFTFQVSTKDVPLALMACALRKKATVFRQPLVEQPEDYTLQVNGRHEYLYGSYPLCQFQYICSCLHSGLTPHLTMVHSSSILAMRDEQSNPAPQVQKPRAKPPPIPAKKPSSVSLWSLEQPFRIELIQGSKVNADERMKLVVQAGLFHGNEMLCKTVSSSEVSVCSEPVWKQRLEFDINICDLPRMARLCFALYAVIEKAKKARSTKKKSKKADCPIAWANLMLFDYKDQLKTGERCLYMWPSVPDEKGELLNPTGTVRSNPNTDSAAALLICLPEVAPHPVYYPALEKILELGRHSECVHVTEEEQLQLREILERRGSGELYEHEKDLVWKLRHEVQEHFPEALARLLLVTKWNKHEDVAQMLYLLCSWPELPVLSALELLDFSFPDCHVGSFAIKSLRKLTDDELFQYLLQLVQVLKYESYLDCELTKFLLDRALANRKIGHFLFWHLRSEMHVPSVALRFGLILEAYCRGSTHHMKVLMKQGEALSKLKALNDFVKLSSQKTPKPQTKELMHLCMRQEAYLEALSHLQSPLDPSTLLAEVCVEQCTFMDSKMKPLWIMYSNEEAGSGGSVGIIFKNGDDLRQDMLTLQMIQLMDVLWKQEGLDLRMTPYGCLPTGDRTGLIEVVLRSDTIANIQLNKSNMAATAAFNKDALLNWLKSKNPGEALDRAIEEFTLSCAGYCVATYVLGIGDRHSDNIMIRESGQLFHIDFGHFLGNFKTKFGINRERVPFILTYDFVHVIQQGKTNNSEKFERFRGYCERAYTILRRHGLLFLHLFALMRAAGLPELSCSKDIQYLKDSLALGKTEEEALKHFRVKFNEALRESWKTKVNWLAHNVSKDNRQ

IC50 (MV4-11): 30 nM
IC50 (HL-60 [8]): 510 nM
Structure (SMILES): Cn1c(=O)n(-c2ccc(C(C)(C)C#N)cc2)c2c3cc(-c4cnc5ccccc5c4)ccc3ncc21 [DACTOLISIB]
inhibition in vivo at 5 mg/kg (HL-60 [1]): 62%
Activity [2]: Non-Toxic
Activity [3]: Non-Toxic
Activity [4]: Non-Toxic
IC50 [5]: 500 nM
Activity [6]: Non-Toxic
Activity [7]: Non-Toxic
IC50 (KG-1): 1310 nM
IC50 (EOL1): 1050 nM
Activity [9]: Non-Toxic

Tmax [11]: 2.8 h
MRT inf [12]: 0.593 h
Vd [13]: 7.26 L/kg
IC50 [15]: 1.57 nM
AUC(0-t) at 24 h [16]: 104 ng·h/mL
AUC(0-inf) [19]: 121 ng·h/mL
Cmax [21]: 15.5 ng/mL
half-life [22]: 4.48 h
IC50 [25]: 0.65 nM
clearance [26]: 37 mL/min/kg
AUC(0-inf) [27]: 903 ng·h/mL
bioavailability [28]: 2.68%
AUC(0-t) at 24 h [29]: 898 ng·h/mL
IC50 [31]: 0.65 nM
half-life [33]: 2.29 h
Structure (SMILES): O=S(=O)(Nc1cc(-c2cnc3[nH]nc(-c4ccncc4)c3c2)cnc1Cl)c1ccc(F)cc1
viability at 1 µM (HL-60 [10]): 53.5%
Activity [14]: Non-Toxic
Activity [17]: Non-Toxic
Activity [18]: Non-Toxic
viability at 0.25 µM (HL-60 [20]): 96.4%
Activity [23]: Non-Toxic
Activity [24]: Non-Toxic
viability at 0.5 µM (HL-60 [30]): 90.4%
Activity [32]: Non-Toxic

IC50 [34]: 32.2 nM
Structure (SMILES): O=S(=O)(Nc1cc(-c2cnc3[nH]ncc3c2)cnc1Cl)c1ccccc1

IC50 [34]: 4.26 nM
IC50 [15]: 4.37 nM
IC50 [35]: 0.67 nM
IC50 [25]: 7.37 nM
IC50 [31]: 1.17 nM
Structure (SMILES): O=S(=O)(Nc1cc(-c2cnc3[nH]nc(-c4ccncc4)c3c2)cnc1Cl)c1ccccc1

IC50 [34]: 2.65 nM
IC50 [35]: 1.24 nM
Structure (SMILES): O=S(=O)(Nc1cc(-c2cnc3[nH]nc(-c4ccccc4)c3c2)cnc1Cl)c1ccccc1
